Calls of active or inactive are those of the source. The calls are words filed in the database; no cut-off is given here.
Columns and labels:
[1] = test system: HT-22; test: Cytoprotective activity against tunicamycin-induced cell death in mouse HT22 cells after 24 hrs by MTT assay; format: functional, cell-based; conditions: for EC50: HT-22, 24 h
[2] = test system: HT-22; test: Cytotoxicity against mouse HT22 cells at 20 uM after 24 hrs by MTT assay; format: cell-based; conditions: ht-22, 24 h
[3] = test system: HT-22; test: Cytoprotective activity against tunicamycin-induced cell death in mouse HT22 cells at 20 uM after 24 hrs by MTT assay; format: functional, cell-based
[4] = test system: HT-22; test: Cytoprotective activity against tunicamycin-induced cell death in mouse HT22 cells assessed as preservation of spindle shape morphology after 24 hrs by MTT assay; format: functional, cell-based
[5] = test system: HT-22; test: Effect on CHOP expression in mouse HT22 cells at 20 uM after 12 hrs by Western blot analysis; format: cell-based; conditions: ht-22, 12 h
[6] = test system: HT-22; test: Suppression of TM-induced increase in CHOP expression in mouse HT22 cells at 20 uM after 12 hrs by Western blot analysis; format: functional, cell-based

In the case of `Cc1ccc2c(c1)C(=O)/C(=C1/C(=O)Nc3ccccc31)N2`, the Activity [1] is reported as “Dose-dependent effect”.
In the case of `COc1ccc2c(c1)/C(=C1/Nc3ccc(OC)cc3/C1=N\O)C(=O)N2`, the Activity [1] is reported as “Dose-dependent effect”.
In the case of `O=C1Nc2ccc(O)cc2/C1=C1/Nc2ccccc2C1=O`, the Activity [1] is reported as “Dose-dependent effect”.
With `O=C1Nc2cc(O)ccc2/C1=C1/Nc2ccccc2C1=O` the Activity [2] was “Non-Toxic”, the Activity [3] was “Active” and the Activity [1] was “Dose-dependent effect”. The EC50 [1] was 23.7 µM, the Activity [4] was “Active” and the Activity [5] was “Non-Toxic”. For the same compound, the Activity [6] was “Active”.
In the case of `Cc1ccc2c(c1)/C(=C1/Nc3ccccc3C1=O)C(=O)N2`, the Activity [2] is reported as “Non-Toxic”, the Activity [3] is reported as “Active” and the Activity [1] is reported as “Dose-dependent effect”. The EC50 [1] was 30.8 µM, the Activity [4] was “Active” and the Activity [5] was “Non-Toxic”. For the same compound, the Activity [6] was “Active”.
With `CC(C)c1ccc2c(c1)/C(=C1/Nc3ccccc3/C1=N\O)C(=O)N2` the Activity [3] was “Active” and the Activity [1] was “Dose-dependent effect”.
With `CC(C)(C)c1ccc2c(c1)/C(=C1/Nc3ccccc3C1=O)C(=O)N2` the Activity [1] was “Dose-dependent effect”.
In the case of `COc1cccc2c1NC(=O)/C2=C1\Nc2ccccc2C1=O`, the Activity [1] is reported as “Dose-dependent effect”.
`O=C1Nc2ccccc2/C1=C1/Nc2ccccc2/C1=N\OCC1CO1` (stereo not given) was tested, and the Activity [1] was “Dose-dependent effect”.
`CC(C)c1ccc2c(c1)/C(=C1/Nc3ccccc3C1=O)C(=O)N2` was tested, and the Activity [1] was “Dose-dependent effect”.
For `COc1ccc2c(c1)C(=O)/C(=C1/C(=O)Nc3ccccc31)N2`, the Activity [1] was “Dose-dependent effect”.
`Cc1ccc2c(c1)/C(=C1/Nc3ccccc3/C1=N\O)C(=O)N2` was tested, and the Activity [3] was “Active” and the Activity [1] was “Dose-dependent effect”.
For `O=C1Nc2cc(Br)ccc2/C1=C1/Nc2ccccc2C1=O`, the Activity [3] was “inactive”.
For `O=C1Nc2ccc(Br)cc2/C1=C1/Nc2ccc(Br)cc2/C1=N\O`, the Activity [2] was “Toxic”, the Activity [3] was “Active” and the Activity [1] was “Dose-dependent effect”.
In the case of `O=C1Nc2ccc(Br)cc2/C1=C1/Nc2ccccc2C1=O`, the Activity [2] is reported as “Non-Toxic”, the Activity [3] is reported as “Active” and the Activity [1] is reported as “Dose-dependent effect”. For the same compound, the EC50 [1] was 36 µM, the Activity [4] was “Active” and the Activity [5] was “Non-Toxic”. The Activity [6] was “Active”.
With `CCc1ccc2c(c1)/C(=C1/Nc3ccccc3C1=O)C(=O)N2` the Activity [1] was “Dose-dependent effect”.
`O=C1Nc2ccc(Br)cc2/C1=C1/Nc2ccccc2/C1=N\O` [INDIRUBIN 2] was tested, and the Activity [2] was “Non-Toxic”, the Activity [3] was “Active” and the Activity [1] was “Dose-dependent effect”. For the same compound, the EC50 [1] was 85.8 µM, the Activity [4] was “Active” and the Activity [5] was “Non-Toxic”. For the same compound, the Activity [6] was “Active”.
In the case of `O=C1Nc2ccc(Br)cc2/C1=C1/Nc2ccc(Br)cc2C1=O`, the Activity [2] is reported as “Non-Toxic”, the Activity [3] is reported as “Active” and the Activity [1] is reported as “Dose-dependent effect”. The EC50 [1] was 21.3 µM, the Activity [4] was “Active” and the Activity [5] was “Non-Toxic”. For the same compound, the Activity [6] was “Active”.
In the case of `COc1ccc2c(c1)N/C(=C1\C(=O)Nc3ccccc31)C2=O`, the Activity [1] is reported as “Dose-dependent effect”.
For `CN1C(=O)/C(=C2\Nc3ccccc3\C2=N/O)c2ccc(Br)cc21`, the Activity [3] was “Active” and the Activity [1] was “Dose-dependent effect”.
In the case of `O=C1Nc2ccccc2/C1=C1/Nc2cc(Br)ccc2C1=O`, the Activity [1] is reported as “Dose-dependent effect”.
In the case of `CC(C)(C)c1ccc2c(c1)/C(=C1/Nc3ccccc3/C1=N\O)C(=O)N2`, the Activity [3] is reported as “Active” and the Activity [1] is reported as “Dose-dependent effect”.
In the case of `O=C1Nc2c(O)cccc2/C1=C1/Nc2ccccc2C1=O`, the Activity [1] is reported as “Dose-dependent effect”.
For `COc1ccc2c(c1)/C(=C1/Nc3ccccc3/C1=N\O)C(=O)N2`, the Activity [3] was “Active” and the Activity [1] was “Dose-dependent effect”.
For `O=C1Nc2ccccc2/C1=C1/Nc2ccccc2/C1=N\O`, the Activity [2] was “Toxic”, the Activity [3] was “Active” and the Activity [1] was “Dose-dependent effect”.
With `COc1ccc2c(c1)/C(=C1/Nc3ccccc3C1=O)C(=O)N2` the Activity [1] was “Dose-dependent effect”.
`O=C1Nc2c(Br)cccc2/C1=C1/Nc2ccccc2C1=O` was tested, and the Activity [3] was “inactive”.
In the case of `COc1ccc2c(c1)C(=N\O)/C(=C1/C(=O)Nc3ccccc31)N2`, the Activity [3] is reported as “Active” and the Activity [1] is reported as “Dose-dependent effect”.
In the case of `CN1C(=O)/C(=C2\Nc3ccccc3C2=O)c2ccc(Br)cc21`, the Activity [3] is reported as “inactive”.
In the case of `O=C1Nc2ccccc2/C1=C1/Nc2ccc(Br)cc2C1=O`, the Activity [1] is reported as “Dose-dependent effect”.
With `COc1ccc2c(c1)NC(=O)/C2=C1\Nc2ccccc2C1=O` the Activity [1] was “Dose-dependent effect”.
For `O=C1Nc2cc(Br)ccc2/C1=C1/Nc2ccccc2/C1=N\O` [6BIO], the Activity [2] was “Toxic” and the Activity [3] was “inactive”.
`CC(=O)N1C(=O)/C(=C2\Nc3ccccc3C2=O)c2ccccc21` was tested, and the Activity [2] was “Non-Toxic”, the Activity [3] was “Active” and the Activity [1] was “Dose-dependent effect”. For the same compound, the EC50 [1] was 9.8 µM, the Activity [4] was “Active” and the Activity [5] was “Non-Toxic”. The Activity [6] was “Active”.
`COc1cccc2c1NC(=O)/C2=C1\Nc2ccccc2\C1=N/O` was tested, and the Activity [3] was “Active” and the Activity [1] was “Dose-dependent effect”.
`O=C1Nc2ccccc2/C1=C1/Nc2cc(Br)ccc2/C1=N\O` was tested, and the Activity [3] was “Active” and the Activity [1] was “Dose-dependent effect”.
For `CCc1ccc2c(c1)/C(=C1/Nc3ccccc3/C1=N\O)C(=O)N2`, the Activity [3] was “Active” and the Activity [1] was “Dose-dependent effect”.
In the case of `COc1cc2c(cc1OC)/C(=C1/Nc3ccccc3C1=O)C(=O)N2`, the Activity [1] is reported as “Dose-dependent effect”.
With `O=C1Nc2ccccc2/C1=C1/Nc2ccccc2C1=O` [INDIRUBIN] the Activity [2] was “Toxic” and the Activity [1] was “Dose-dependent effect”.
For `COc1ccc2c(c1)NC(=O)/C2=C1\Nc2ccccc2\C1=N/O`, the Activity [3] was “Active” and the Activity [1] was “Dose-dependent effect”.
In the case of `O=C(O)Cc1ccc2c(c1)/C(=C1/Nc3ccccc3C1=O)C(=O)N2`, the Activity [1] is reported as “Dose-dependent effect”.
`COc1cc2c(cc1OC)/C(=C1/Nc3ccccc3/C1=N\O)C(=O)N2` was tested, and the Activity [3] was “Active” and the Activity [1] was “Dose-dependent effect”.
With `CCc1ccc2c(c1)C(=O)/C(=C1/C(=O)Nc3ccccc31)N2` the Activity [2] was “Non-Toxic”, the Activity [3] was “Active” and the Activity [1] was “Dose-dependent effect”. For the same compound, the EC50 [1] was 24.5 µM, the Activity [4] was “Active” and the Activity [5] was “Non-Toxic”. For the same compound, the Activity [6] was “Active”.
For `COc1ccc2c(c1)C(=O)/C(=C1/C(=O)Nc3ccc(OC)cc31)N2`, the Activity [2] was “Non-Toxic”, the Activity [3] was “Active” and the Activity [1] was “Dose-dependent effect”. The EC50 [1] was 30 µM, the Activity [4] was “Active” and the Activity [5] was “Non-Toxic”. The Activity [6] was “Active”.
With `O=C1Nc2ccccc2/C1=C1/Nc2ccc(Br)cc2/C1=N\O` the Activity [3] was “Active” and the Activity [1] was “Dose-dependent effect”.

Reference: ChEMBL document CHEMBL4177682, “Indirubin derivatives protect against endoplasmic reticulum stress-induced cytotoxicity and down-regulate CHOP levels in HT22 cells” (Bioorg Med Chem Lett, 2017)
